“Also recorded” adds a separate entry of the source.
Columns and labels:
woodchuck PBMCs = assay: PBMC proliferation assay (stimulation index) with PBMCs of treated woodchucks; assay type: in vivo
Description: T cell responses against WHY were determined using in vitro stimulators at concentrations optimal for cultures of woodchuck PBMCs (29, 30). Stimulators consisted of native 22-nm WHsAg (2 μg/ml), recombinant WHcAg (2 μg/ml), or synthetic peptides (10 μg/ml) corresponding to either native viral sequences or predicted N-de-glycosylated sequences (Table 1, below).
The in vitro proliferation assay using woodchuck PBMCs labeled dividing cells with [2-^3H]adenine (Amersham Pharmacia Biotech, Inc., Arlington Heights, Ill.). Woodchuck PBMCs were isolated from whole blood and stimulated as described (30, 31). Counts per minute of triplicate PBMC cultures were averaged and expressed as a stimulation index (SI) by dividing the average sample counts per minute in the presence of the stimulator by that observed in the absence of stimulator (six replicates). A SI value of ≧3.1 was considered to represent a positive, specific T-cell response.
Woodchucks chronically infected with WHV experienced significant immunological responses to envelope proteins following immunization with WHsAg-containing vaccines, especially in the context of low viral and antigen loads following treatment with an effective antiviral agent, 1-(2-fluoro-5-methyl-beta-L-arabinofuranosyl)-uracil (L-FMAU) (29, 35). […] Animals were scored as positive if cells proliferated above the cut-off value of 2: 3.1. […]

[1] = tested on: HBV-containing HepG2.2.15 cells; assay: interferon-γ ELISpot: peptide-primed CTLs against BuCas-treated target cells; assay type: cell-based, human; details: BuCas 1 mg/ml twice at 3 day interval, FIG. 2B
Description: Heparinized blood from healthy HLA-A2 donors was purchased from Research Blood Components, LLC, (Brighton, Mass.). Peripheral blood mononuclear cells were purified and cultured as described (13, 21). After initial stimulation with synthetic peptide, T cells were re-stimulated with CD4/CD8 T cell depleted autologous monocytes pulsed with synthetic peptide at 10 μg/ml for 5 days. IL-2 treatment and in vitro re-stimulation were repeated thrice prior to use of in vitro expanded T cells in ELISpot assays.
In vitro expanded CTLs were used as effectors in ELISpot assays to assess antigen stimulated interferon-γ release according to the manufacturer's instructions (BD-Pharmingen, San Jose, Calif.). Target cells were HepG2 human hepatoma cells (HBV negative; American Type Culture Collection) or HBV-containing HepG2.2.15 cells (22). […]
Peptides presented on the surface of a cell in the context of the MHC class I complex should be recognized with high sensitivity upon incubation with cognate peptide-primed CTLs, with specific killing of the target cells. […] Target cell recognition was quantified by interferon-γ ELISpot assay.
The ability of in vitro generated CTLs to recognize and secrete interferon-γ was evaluated by ELISpot assay. […] The P value was calculated from a Student's t-Test analysis of experimental results.

`CCCC(=O)O[C@H]1CN2CC[C@H](O)[C@@H]2[C@@H](O)[C@H]1O` [BuCas, 6-O-butanoyl castanospermine] was tested, and the “PBMC response to paired N-peptides versus D-peptides” value (woodchuck PBMCs; glycosylation sequons at amino acids 4 and 146, from week 8 on, FIG. 4) was “responded more strongly to D-peptides versus N-peptides”, the “PBMC proliferation in response to WHV HBs antigens” value (woodchuck PBMCs; positive if SI ≧3.1, FIG. 3) was “resulted in proliferation in response to WHV HBs antigens; also recorded: stimulated cellular immunity to viral antigen” and the “presentation of the D-peptide epitope by target cells” value ([1]; CTLs primed with D-peptide) was “increased significantly”. For the same compound, the “presentation of the N-peptide epitope by target cells” value ([1]; CTLs primed with N-peptide) was “reduced”.

From patent US20160051665A1, “INDUCTION OF IMMUNE RESPONSE” (priority 2010, published 2016)
